Test results taken from PMC10817512, “OSMAC-Based Discovery and Biosynthetic Gene Clusters Analysis of Secondary Metabolites from Marine-Derived Streptomyces globisporus SCSIO LCY30” (Marine Drugs, 2023).
Converted amounts (≈) assume the structure as drawn. Read-outs that look alike come from different tables or passages of the source. Values belong to the compound of their own block, whether it stands above or below them.

Key:
[1] = tested on: fourteen human cell lines; test: Cytotoxicity, span over the whole cell panel; type: cell-based; details: span of the IC50 values over all fourteen cell lines, read-out: IC50 values, range against fourteen human cell lines
From the text: (§1) The cell growth inhibitory activities of compounds 1–3 against fourteen different human cell lines (human liver cell line LX-2; hepatocellular cancer line HEPG2; human intestinal epithelial cell line NCM460; colorectal cancer cell lines HCT116 and SW480; normal human breast cell line MCF-10A; breast cancer cell line MCF7; triple-negative breast cancer cell lines MDA-MB-231, MDA-MB-468, and Bt-549; human umbilical vein endothelial cell line; lung cancer cell line A549; cervical cancer cell line Hela; and cholangiocarcinoma cell line RBE) were tested according to the previously published methods. SPSS software version 22.0 was used to test the IC50 values. Cisplatin and adriamycin were used as positive control agents, and all the experiments were carried out in triplicate.

[2] = tested on: Staphylococcus simulans AKA1; test: Antibacterial MIC, CLSI microdilution; type: cell-based
[3] = tested on: breast cancer cell line MCF7; test: Cell growth inhibitory (cytotoxic) activity assay; type: cell-based, human; details: Homo sapiens
From the text: SPSS software version 22.0 was used to test the IC50 values.

[4] = tested on: Staphylococcus aureus ATCC 29213; test: Antibacterial MIC, CLSI microdilution; type: cell-based; details: ATCC29213
Experimental: (§2) An antibacterial activity test of compounds 1–3 was conducted according to a standard protocol provided by the Clinical and Laboratory Standards Institute (CLSI). Sixteen bacterial strains were used, including Staphylococcus aureus ATCC 29213, Staphylococcus aureus 16339, Staphylococcus aureus 1862, Staphylococcus aureus 3090, Staphylococcus aureus 991, Staphylococcus aureus 669, Staphylococcus aureus 745324, Staphylococcus aureus 16162, Staphylococcus aureus (cfr) GDE4P037P, Enterococcus faecalis ATCC 29212, Enterococcus faecalis 36950, Micrococcus luteus ML01, MRSA, Bacillus subtilis BS01, Enterococcus gallinarum 5F52C, and Enterococcus faecium 36711. Compounds 1–3 were dissolved in DMSO at a concentration of 3.2 mg/mL, and vancomycin and ampicilin were used as antibacterial control agents. […] All the assays were carried out in triplicate.

Bacillus subtilis BS01 = test: Antibacterial MIC, CLSI microdilution; type: cell-based
Experimental: as §2

[5] = tested on: Staphylococcus aureus 991; test: Antibacterial MIC, CLSI microdilution; type: cell-based
Experimental: as §2

[6] = tested on: Staphylococcus aureus 669; test: Antibacterial MIC, CLSI microdilution; type: cell-based
Experimental: as §2

[7] = tested on: Staphylococcus aureus 16162; test: Antibacterial MIC, CLSI microdilution; type: cell-based
Experimental: as §2

[8] = tested on: Staphylococcus aureus 1862; test: Antibacterial MIC, CLSI microdilution; type: cell-based
Experimental: as §2

[9] = tested on: Enterococcus faecalis ATCC 29212; test: Antibacterial MIC, CLSI microdilution; type: cell-based; details: ATCC29212
Experimental: as §2

[10] = tested on: Staphylococcus aureus 3090; test: Antibacterial MIC, CLSI microdilution; type: cell-based
Experimental: as §2

[11] = tested on: Enterococcus gallinarum 5F52C; test: Antibacterial MIC, CLSI microdilution; type: cell-based
Experimental: as §2

[12] = tested on: Staphylococcus aureus 16339; test: Antibacterial MIC, CLSI microdilution; type: cell-based
Experimental: as §2

[13] = tested on: Enterococcus faecium 36711; test: Antibacterial MIC, CLSI microdilution; type: cell-based
Experimental: as §2

[14] = tested on: Staphylococcus aureus (cfr) GDE4P037P; test: Antibacterial MIC, CLSI microdilution; type: cell-based
Experimental: as §2

[15] = tested on: Enterococcus faecalis 36950; test: Antibacterial MIC, CLSI microdilution; type: cell-based
Experimental: as §2

[16] = tested on: Staphylococcus aureus 745324; test: Antibacterial MIC, CLSI microdilution; type: cell-based
Experimental: as §2

Micrococcus luteus ML01 = test: Antibacterial MIC, CLSI microdilution; type: cell-based
Experimental: as §2

[17] = tested on: TNBC cell lines MDA-MB-231, MDA-MB-468, and Bt-549; test: Cytotoxicity, span over TNBC cell lines; type: cell-based; details: Homo sapiens; span over MDA-MB-231, MDA-MB-468 and Bt-549; read-out: IC50 values, range against TNBC cell lines
From the text: as §1

[18] = tested on: human umbilical vein endothelial cell line HUVEC; test: Cell growth inhibitory (cytotoxic) activity assay; type: cell-based
From the text: as §1

[19] = tested on: human intestinal epithelial cell line NCM460; test: Cell growth inhibitory (cytotoxic) activity assay; type: cell-based; details: Homo sapiens; NCM460 (normal intestinal epithelial cell line)
From the text: as §1

[20] = tested on: normal human breast cell line MCF-10A; test: Cell growth inhibitory (cytotoxic) activity assay; type: cell-based; details: MCF-10A (normal human breast cell line)
From the text: as §1

[21] = tested on: human liver cell line LX-2; test: Cell growth inhibitory (cytotoxic) activity assay; type: cell-based; details: LX-2 (human liver cell line)
From the text: as §1

MRSA = test: Antibacterial MIC, CLSI microdilution; type: cell-based, Staphylococcus aureus; details: Staphylococcus aureus
Experimental: as §2

[22] = tested on: cholangiocarcinoma cell line RBE; test: Cell growth inhibitory (cytotoxic) activity assay; type: cell-based, human; details: Homo sapiens
From the text: as §1

[23] = tested on: hepatocellular cancer line HEPG2; test: Cell growth inhibitory (cytotoxic) activity assay; type: cell-based, human; details: Homo sapiens
From the text: as §1

[24] = tested on: lung cancer cell line A549; test: Cell growth inhibitory (cytotoxic) activity assay; type: cell-based, human; details: Homo sapiens
From the text: as §1

[25] = tested on: triple-negative breast cancer cell line MDA-MB-468; test: Cell growth inhibitory (cytotoxic) activity assay; type: cell-based, human; details: Homo sapiens; MDA-MB-468 (TNBC)
From the text: as §1

[26] = tested on: colorectal cancer cell line SW480; test: Cell growth inhibitory (cytotoxic) activity assay; type: cell-based, human; details: Homo sapiens; SW480 (colorectal cancer)
From the text: as §1

[27] = tested on: colorectal cancer cell line HCT116; test: Cell growth inhibitory (cytotoxic) activity assay; type: cell-based, human; details: Homo sapiens, HCT-116
From the text: as §1

[28] = tested on: triple-negative breast cancer cell line Bt-549; test: Cell growth inhibitory (cytotoxic) activity assay; type: cell-based, human; details: Homo sapiens; Bt-549 (TNBC)
From the text: as §1

[29] = tested on: cervical cancer cell line Hela; test: Cell growth inhibitory (cytotoxic) activity assay; type: cell-based, human; details: Homo sapiens
From the text: as §1

[30] = tested on: triple-negative breast cancer cell line MDA-MB-231; test: Cell growth inhibitory (cytotoxic) activity assay; type: cell-based, human; details: Homo sapiens; MDA-MB-231 (TNBC)
From the text: as §1

MIC ([2]; Staphylococcus simulans AKA1, 37 °C, 16–18 h, read-out: MIC): 64 µg/mL (≈ 142 µM) | MIC ([4]; Staphylococcus aureus ATCC 29213, 37 °C, 16–18 h, read-out: MIC): 16 µg/mL (≈ 35.6 µM) | MIC (Bacillus subtilis BS01; Bacillus subtilis BS01, 37 °C, 16–18 h, read-out: MIC): 8 µg/mL (≈ 17.8 µM) | MIC ([5]; Staphylococcus aureus 991, 37 °C, 16–18 h, read-out: MIC): 16 µg/mL (≈ 35.6 µM) | MIC ([6]; Staphylococcus aureus 669, 37 °C, 16–18 h, read-out: MIC): 16 µg/mL (≈ 35.6 µM) | MIC ([7]; Staphylococcus aureus 16162, 37 °C, 16–18 h, read-out: MIC): 16 µg/mL (≈ 35.6 µM) | MIC ([8]; Staphylococcus aureus 1862, 37 °C, 16–18 h, read-out: MIC): 16 µg/mL (≈ 35.6 µM) | MIC ([9]; Enterococcus faecalis ATCC 29212, 37 °C, 16–18 h, read-out: MIC): 16 µg/mL (≈ 35.6 µM) | MIC ([10]; Staphylococcus aureus 3090, 37 °C, 16–18 h, read-out: MIC): 8 µg/mL (≈ 17.8 µM) | MIC ([11]; Enterococcus gallinarum 5F52C, 37 °C, 16–18 h, read-out: MIC): 32 µg/mL (≈ 71.2 µM) | MIC ([12]; Staphylococcus aureus 16339, 37 °C, 16–18 h, read-out: MIC): 16 µg/mL (≈ 35.6 µM) | MIC ([13]; Enterococcus faecium 36711, 37 °C, 16–18 h, read-out: MIC): 32 µg/mL (≈ 71.2 µM) | MIC ([14]; Staphylococcus aureus (cfr) GDE4P037P, 37 °C, 16–18 h, read-out: MIC): 8 µg/mL (≈ 17.8 µM) | MIC ([15]; Enterococcus faecalis 36950, 37 °C, 16–18 h, read-out: MIC): 8 µg/mL (≈ 17.8 µM) | MIC ([16]; Staphylococcus aureus 745324, 37 °C, 16–18 h, read-out: MIC): 8 µg/mL (≈ 17.8 µM) | MIC (Micrococcus luteus ML01; Micrococcus luteus ML01, 37 °C, 16–18 h): 1 µg/mL (≈ 2.22 µM) | MIC (Micrococcus luteus ML01; Micrococcus luteus, ML01, Micrococcus luteus ML01, 37 °C, 16–18 h, read-out: MIC): 1 to 2 µg/mL (≈ 2.22 to 4.45 µM) | MIC (MRSA; 37 °C, 16–18 h, read-out: MIC): 8 µg/mL (≈ 17.8 µM)
SMILES: Cc1cc(O)c2c3c(c(O)c(C4CC(N)C(O)C(C)O4)c2c1)C(=O)c1c(O)cccc1C3=O (stereo not drawn) [Mayamycin B (2), mayamycin B]
IC50 [1]: 2.05 to 7.16 µM | IC50 [3]: 4.15 µM | IC50 [17]: 3.01 to 6.08 µM | IC50 [18]: 4.41 µM | IC50 [19]: 7.16 µM | IC50 [20]: 5.21 µM | IC50 [21]: 5.33 µM | IC50 [22]: 4.06 µM | IC50 [23]: 6 µM | IC50 [24]: 5.08 µM | IC50 [25]: 6.08 µM | IC50 [26]: 2870 nM | IC50 [27]: 2050 nM | IC50 [28]: 3.87 µM | IC50 [29]: 2800 nM | IC50 [30]: 3.01 µM

SMILES: CN[C@H](CC(C)C)C(=O)N[C@H]1C(=O)N[C@@H](CC(N)=O)C(=O)N[C@H]2C(=O)N[C@H]3C(=O)N[C@H](C(=O)N[C@H](C(=O)O)c4cc(O)cc(O)c4-c4cc3ccc4O)[C@H](O)c3ccc(c(Cl)c3)Oc3cc2cc(c3O[C@@H]2O[C@H](CO)[C@@H](O)[C@H](O)[C@H]2O[C@H]2C[C@](C)(N)[C@H](O)[C@H](C)O2)Oc2ccc(cc2Cl)[C@H]1O [Vancomycin, reference compound]
MIC ([2]; Staphylococcus simulans, AKA1): 0.5 µg/mL (≈ 0.345 µM) | MIC ([4]; Staphylococcus aureus): 1 µg/mL (≈ 0.69 µM) | MIC (Bacillus subtilis BS01; Bacillus subtilis, BS01): 0.13 µg/mL (≈ 0.0897 µM) | MIC ([5]; Staphylococcus aureus, 991): 0.5 µg/mL (≈ 0.345 µM) | MIC ([6]; Staphylococcus aureus, 669): 1 µg/mL (≈ 0.69 µM) | MIC ([7]; Staphylococcus aureus, 16162): 0.5 µg/mL (≈ 0.345 µM) | MIC ([8]; Staphylococcus aureus, 1862): 1 µg/mL (≈ 0.69 µM) | MIC ([9]; Enterococcus faecalis): 2 µg/mL (≈ 1.38 µM) | MIC ([10]; Staphylococcus aureus, 3090): 0.5 µg/mL (≈ 0.345 µM) | MIC ([11]; Enterococcus gallinarum, GALLINARUM): 4 µg/mL (≈ 2.76 µM) | MIC ([12]; Staphylococcus aureus, 16339): 1 µg/mL (≈ 0.69 µM) | MIC ([13]; Enterococcus faecium, 36711): > 64 µg/mL | MIC ([14]; Staphylococcus aureus): 1 µg/mL (≈ 0.69 µM) | MIC ([15]; Enterococcus faecalis, 36950): 0.5 µg/mL (≈ 0.345 µM) | MIC ([16]; Staphylococcus aureus, 745324): 1 µg/mL (≈ 0.69 µM) | MIC (Micrococcus luteus ML01; Micrococcus luteus, ML01): 0.13 µg/mL (≈ 0.0897 µM) | MIC (MRSA): 0.5 µg/mL (≈ 0.345 µM)
